From patent US4789542A, “Radioiodinated glucose analogues for use as imaging agents” (The United States of America as represented by the United …, priority 1986, dated 1988)
Like-named read-outs stand apart in the source and are kept apart here.

Test: Distribution of radioactivity in tissues of female rats after intravenous administration
Assay type: in vivo
Details: rat; for Brain/Blood ratio / Distribution of radioactivity, Brain / Heart/Blood ratio / tissue uptake at 5 min / tissue uptake at 0.25 h / tissue uptake at 0.5 h / tissue uptake at 1 h: mean; for tissue uptake at 5 min / tissue uptake at 0.25 h / tissue uptake at 0.5 h / tissue uptake at 1 h: iv
Procedure: A test radiopharmaceutical methyl-2-deoxy-2-(E)-[^125 I]-iodovinyl-2,4,6-0-triacetyl-β-D-altropyranoside 6 was prepared to establish that a deoxy substituted iodovinyl carbohydrate could be delivered to the brain in significant levels with prolonged retention. One novel aspect of the invention was the scission of an anhydro sugar with the Grignard reagent. This technique was chosen because a variety of 2-deoxy iodovinyl carbohydrates could be prepared depending on the position of the anhydro group within the pyranose ring. The process of the synthesis is shown in the drawing.
The distribution of radioactivity in tissues of female rats at 5 minutes, 15 minutes, 30 minutes and 60 minutes after intravenous administration of the iodinated compound is shown in the following table. The level of accumulation of radioactivity in the brain after injection of this agent was a significant 1.65 percent dose/g at 5 minutes but the blood levels were also high resulting in blood ratios of 1.6/1 at 5 minutes.

In the case of `CO[C@@H]1O[C@H](COC(C)=O)[C@@H](OC(C)=O)[C@@H](OC(C)=O)[C@@H]1/C=C/[125I]` [methyl-2-deoxy-2-(E)-[^125 I]-iodovinyl-2,4,6-0-triacetyl-β-D-altropyranoside], the Brain/Blood ratio (5 min) is reported as 1.5666, the “Distribution of radioactivity, Brain” value (5 min) is reported as 1.6525 percent dose/g and the Heart/Blood ratio (5 min) is reported as 1.0776. It also gave a Brain/Blood ratio (15 min) of 1.2775, a Heart/Blood ratio (15 min) of 1.1490 and a Brain/Blood ratio (30 min) of 1.1035. The Heart/Blood ratio (30 min) was 1.0809, the Brain/Blood ratio (60 min (1 hr)) was 1.1087 and the Heart/Blood ratio (60 min (1 hr)) was 1.0408. For the same molecule, the “Distribution of radioactivity, Brain” value (60 min (1 hr), 60 min) was 0.7237 percent dose/g, the “Brain retention at 60 minutes compared with the peak uptake at 5 minutes” value (60 min vs 5 min) was 50% and the tissue uptake at 5 min (blood, 5 min, read-out: Distribution of radioactivity, Blood) was 1.05 %ID/g. The tissue uptake at 0.25 h (blood, 15 min, read-out: Distribution of radioactivity, Blood) was 0.933 %ID/g, the tissue uptake at 0.5 h (blood, 30 min, read-out: Distribution of radioactivity, Blood) was 0.0037 %ID/g and the tissue uptake at 1 h (blood, 60 min (1 hr), read-out: Distribution of radioactivity, Blood) was 0.653 %ID/g. The tissue uptake at 5 min (brain, 5 min, read-out: Distribution of radioactivity, Brain) was 1.65 %ID/g, the tissue uptake at 0.25 h (brain, 15 min, read-out: Distribution of radioactivity, Brain) was 1.19 %ID/g and the tissue uptake at 0.5 h (brain, 30 min, read-out: Distribution of radioactivity, Brain) was 0.891 %ID/g. It also gave a tissue uptake at 1 h (brain, 60 min (1 hr), read-out: Distribution of radioactivity, Brain) of 0.72 %ID/g, a tissue uptake at 5 min (kidney, 5 min, read-out: Distribution of radioactivity, Kidney) of 1.55 %ID/g and a tissue uptake at 0.25 h (kidney, 15 min, read-out: Distribution of radioactivity, Kidney) of 1.57 %ID/g. The tissue uptake at 0.5 h (kidney, 30 min, read-out: Distribution of radioactivity, Kidney) was 1.7 %ID/g, the tissue uptake at 1 h (kidney, 60 min (1 hr), read-out: Distribution of radioactivity, Kidney) was 1.57 %ID/g and the tissue uptake at 5 min (liver, 5 min, read-out: Distribution of radioactivity, Liver) was 1.39 %ID/g. The tissue uptake at 0.25 h (liver, 15 min, read-out: Distribution of radioactivity, Liver) was 1.37 %ID/g, the tissue uptake at 0.5 h (liver, 30 min, read-out: Distribution of radioactivity, Liver) was 1.23 %ID/g and the tissue uptake at 1 h (liver, 60 min (1 hr), read-out: Distribution of radioactivity, Liver) was 1.05 %ID/g. The tissue uptake at 5 min (lung, 5 min, read-out: Distribution of radioactivity, Lung) was 1.19 %ID/g, the tissue uptake at 0.25 h (lung, 15 min, read-out: Distribution of radioactivity, Lung) was 1.03 %ID/g and the tissue uptake at 0.5 h (lung, 30 min, read-out: Distribution of radioactivity, Lung) was 0.833 %ID/g. It also gave a tissue uptake at 1 h (lung, 60 min (1 hr), read-out: Distribution of radioactivity, Lung) of 0.663 %ID/g, a tissue uptake at 5 min (thyroid, 5 min, read-out: Distribution of radioactivity, Thyroid) of 20.6 %ID/g and a tissue uptake at 0.25 h (thyroid, 15 min, read-out: Distribution of radioactivity, Thyroid) of 18.9 %ID/g. The tissue uptake at 0.5 h (thyroid, 30 min, read-out: Distribution of radioactivity, Thyroid) was 25.7 %ID/g, the tissue uptake at 1 h (thyroid, 60 min (1 hr), read-out: Distribution of radioactivity, Thyroid) was 33.5 %ID/g and the “Retention in the brain” value (up to 60 min) was “prolonged retention in the brain”. For the same molecule, the “Stability to in vivo deiodination (from low thyroid accumulation)” value (up to 60 min) was “demonstrated the stability of this agent to in vivo deiodination”.
